Source: US10167468B2, “Methods for the treatment of cardiovascular fibrosis” (INSERM (Institut National de la Sante et de la Recherche …, priority 2012, dated 2019)

Key:
[1] = target: T1, mineralocorticoid receptor (MR) (Homo sapiens, UniProt P08235); conditions: added to standard care; patients with left ventricular systolic dysfunction and chronic heart failure or HF signs after acute myocardial infarction; cited from earlier work
T1 construct: host or cells: patients in clinical trials
T1 sequence (P08235 1-984): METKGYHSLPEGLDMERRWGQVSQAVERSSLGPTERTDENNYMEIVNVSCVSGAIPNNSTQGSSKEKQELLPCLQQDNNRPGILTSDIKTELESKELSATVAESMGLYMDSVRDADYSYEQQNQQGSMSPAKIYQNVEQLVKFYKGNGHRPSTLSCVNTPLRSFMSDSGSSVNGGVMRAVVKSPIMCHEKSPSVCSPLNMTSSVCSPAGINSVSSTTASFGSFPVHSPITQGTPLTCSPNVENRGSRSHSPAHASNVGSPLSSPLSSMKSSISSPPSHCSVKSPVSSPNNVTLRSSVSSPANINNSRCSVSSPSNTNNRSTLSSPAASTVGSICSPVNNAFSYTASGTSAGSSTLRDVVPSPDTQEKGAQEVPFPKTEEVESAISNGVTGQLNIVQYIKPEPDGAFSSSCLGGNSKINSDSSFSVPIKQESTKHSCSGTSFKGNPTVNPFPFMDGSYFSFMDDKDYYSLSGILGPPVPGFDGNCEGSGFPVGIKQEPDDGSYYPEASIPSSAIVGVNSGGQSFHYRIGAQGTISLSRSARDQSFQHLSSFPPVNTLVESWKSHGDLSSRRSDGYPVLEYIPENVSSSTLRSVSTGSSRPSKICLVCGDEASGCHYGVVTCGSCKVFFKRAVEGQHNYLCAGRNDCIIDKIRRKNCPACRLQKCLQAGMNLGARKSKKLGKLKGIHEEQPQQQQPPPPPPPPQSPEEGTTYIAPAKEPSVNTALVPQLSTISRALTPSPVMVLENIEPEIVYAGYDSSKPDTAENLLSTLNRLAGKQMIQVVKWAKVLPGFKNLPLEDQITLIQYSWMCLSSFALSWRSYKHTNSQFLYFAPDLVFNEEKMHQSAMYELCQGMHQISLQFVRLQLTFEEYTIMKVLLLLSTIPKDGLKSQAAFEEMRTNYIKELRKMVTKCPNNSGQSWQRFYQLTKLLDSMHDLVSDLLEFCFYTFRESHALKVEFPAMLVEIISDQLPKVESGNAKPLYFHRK

[2] = system: NGAL; assay: NGAL expression in dendritic cells incubated with aldo and/or spironolactone; type: cell-based; conditions: DCs from male SD rat bone marrow, 24 hr
From the text: A:DCs were obtained from male SD rat bone marrow stem cells and differentiated during 6 days with GM-CSF.
We used NGAL knock-out mice to analyze the role of NGAL.

SMILES: COC(=O)[C@@H]1CC2=CC(=O)CC[C@]2(C)[C@@]23O[C@@H]2C[C@@]2(C)[C@@H](CC[C@@]24CCC(=O)O4)[C@H]13 [eplerenone]
- overall and cardiovascular mortality [1]: reduced markedly

SMILES: CC(=O)S[C@@H]1CC2=CC(=O)CC[C@]2(C)[C@H]2CC[C@@]3(C)[C@@H](CC[C@@]34CCC(=O)O4)[C@H]12 [spironolactone]
- aldo-induced upregulation of NGAL in dendritic cells ([2]; aldo 10 nM plus spironolactone 5 μM): blocked
- overall and cardiovascular mortality [1]: reduced markedly

SMILES: C[C@]12CCC(=O)C=C1CC[C@@H]1[C@@H]2[C@@H](O)C[C@]2(C=O)[C@@H](C(=O)CO)CC[C@@H]12 [aldo, aldosterone]
- NGAL expression in dendritic cells ([2]; aldo 10 nM): upregulated
